Marks after values point to notes of the source that are not given here.
Experiments:
[1] = system: hybrid (S. invicta×S. richteri); test: Two-choice digging bioassay, head-to-head against octanoic acid; format: in vivo; conditions: 25.00 ppm
Description: (§1) The repellency of the two terpenoids, callicarpenal and intermedeol, against workers of red imported fire ants, Solenopsis invicta Buren, black imported fire ants, Solenopsis rickeri Forel, and a hybrid of these two species was evaluated using multiple-choice digging bioassays (Tables 9 & 10). […] Callicarpenal and intermedeol were compared with octanoic acid, a known fire ant repellant, at the 25.00 ppm level using two-choice digging bioassays (FIGS. 3 and 4).
(§2) Head-to-head comparison on repellency of callicarpenal and intermedeol against octanoic acid: The bioassay apparatus was similar as described above, except a smaller Petri dish (8.7×2.3 cm) was used and only two choices were presented: one was sand treated with callicarpenal or intermedeol and the other with octanoic acid. Two choices were opposite each other across the center of the Petri dish and each was 3.0 cm away from the center. All compounds were tested at a 25.00 ppm level. Sand preparation was similar as described above. Ants from the same colonies as above were used in this experiment. There were five replications for each pair of comparisons. A paired t-test (critical P-value=0.05) was used to compare the mean amount of sand removed between two tubes.

S. richteri = test: as above; format: in vivo, Solenopsis richteri; conditions: 25.00 ppm; both S. richteri colonies; FIGS. 3 and 4
Description: as §1, §2

Aedes aegypti = test: K & D module mosquito anti-biting (repellent) bioassay; format: in vivo
Description: Insects: Ae. aegypti(L.) (red eye Liverpool strain) and An. stephensi Liston used in the study were from colonies maintained at the Walter Reed Army Institute of Research, Silver Spring, Md. […] Adults were maintained in a photoperiod of 12:12 (L:D) h at 27° C. and 80% RH with cotton pads moistened with 10% aqueous sucrose solution. Mated females were 5-15 d old when they were used in bioassays. Ae. aegypti females had access only to water 24 h and neither food nor water for another 24 h before testing. An. stephensi females were provided with water alone 24 h before testing.
Routinely, a six-celled K & D module containing five mosquitoes/cell was positioned over cloth treatments covering the six blood-membrane wells, and trap doors of the K&D modules were opened to expose the treatments to the sets of mosquitoes. After a 3 minute exposure, the number of mosquitoes biting through cloth treatments in each cell was recorded and mosquitoes were prodded back into the cells. […] Experiments were replicated 12, 18, 32, or 56 times. Thus, 60, 90, 160. or 280 mosquitoes were tested against each treatment depending on the experiment, and the proportion of mosquitoes not biting for each treatment was calculated. For each experiment, conducted in different time periods, logistic regression was used to make two sets of one degree-of-freedom contrasts (t-tests): treatments vs. control and treatments vs. SS220 for anti-biting activity within each experiment. The level of significance was set at P=0.05. In all, we conducted 8 biological experiments, and all experiments used Ae. aegypti as the test mosquito with exception of Experiment 7 which used An. stephensi.
Each experiment was replicated 18 times.
Experiments 3, 4, and 5: In each of these experiments, chromatographic fractions of essential oil at their respective percentage compositions of 100 μg essential oil/cm^2 cloth, 100 μg unfractionated essential oil/cm^2 cloth, 25 nmol SS-220/cm^2 cloth and control were compared for mosquito anti-biting activity. Each experiment was replicated 18 times.
Experiments 6 and 7: These experiments compared the anti-biting activities of SS-220, and plant-isolated callicarpenal, humulene epoxide II, intermedeol and spathulenol at 25 nmol compound/cm^2 cloth versus control against Ae. aegypti and An. stephensi, respectively. Experiment 6 was replicated 32 times and 7 had 56 replicates
The percentage composition of the mixture was a normalized percentage of active components in C. japonica essential oil based upon GC-MS analysis total ion Area % analysis based on largest peaks. Other treatments in the experiment were SS220, callicarpenal, intermedeol, and spathulenol each at 25 nmol/cm^2 cloth versus control.

S. invicta = test: Two-choice digging bioassay, head-to-head against octanoic acid; format: in vivo, Solenopsis invicta; conditions: 25.00 ppm; both S. invicta colonies; FIGS. 3 and 4
Description: as §1, §2

[2] = Exp. 6, 25 nmol compound/cm^2 cloth, 32 replicates
[3] = Exp. 8, 25 nmol/cm^2 cloth, 12 replicates
[4] = Experiment 6, 25 nmol compound/cm^2 cloth
[5] = Experiment 8, 25 nmol/cm^2 cloth

SMILES	repellency compared with octanoic acid (in words) ([1]; one hybrid colony, FIG. 3)	repellency compared with octanoic acid (in words) ([1]; the other hybrid colony, FIG. 3)	repellency compared with octanoic acid (in words) (S. richteri)	Proportion Not Biting (Aedes aegypti; [2])	Proportion Not Biting (Aedes aegypti; [3])	repellent activity (in words) (Aedes aegypti; [4])	repellent activity (in words) (Aedes aegypti; [5])	Proportion Not Biting (Aedes aegypti; Table 7, Example 2, synthetic compounds, dose not given)	Proportion Not Biting (Aedes aegypti; Table 8, Example 3, synthetic compounds, dose not given)	repellency compared with octanoic acid (in words) (S. invicta)	repellency compared with octanoic acid (in words) ([1]; all hybrid colonies, FIG. 4)
CC1=CCC[C@@H]2[C@@](C)(CC=O)[C@H](C)CC[C@@]12C [callicarpenal, 13,14,15,16-tetranorclerod-3-en-12-al]	significantly greater repellency than octanoic acid	no significant difference	significantly greater repellency than octanoic acid	0.70^b	0.73^a	significant activity	high repellent activity that was comparable to SS220	0.70^b	0.73^b	no significant difference	–
C=C(C)C1CCC2(C)CCCC(C)(O)C2C1 [intermedeol, (4S,5S,7R,10S)-eudesm-11-en-4-ol]	–	–	significantly greater repellency than octanoic acid	0.70^b	0.62^c	significant activity	high repellent activity that was comparable to SS220	–	–	significantly greater repellency than octanoic acid	significantly greater repellency than octanoic acid

— patent US20100190849A1, “Novel Clerodanes and Methods for Repelling Arthropods” (priority 2006, published 2010)
